Laboratory results from ChEMBL document CHEMBL5096194, “Development of Alectinib-Based PROTACs as Novel Potent Degraders of Anaplastic Lymphoma Kinase (ALK)” (J Med Chem, 2021).
Calls of active or inactive are those of the source. The calls are words filed in the database; no cut-off is given here.

How the values were obtained:
BaF3 [1] = experiment: Antiproliferative activity against mouse BaF3 cells expressing wild type EML-ALK assessed as cell viability at 1 uM incubated for 72 hrs by Celltitre-Glo assay relative to control; assay type: functional; conditions: read-out: Activity
NCI-H3122 = experiment: Antiproliferative activity against ALK-positive human NCI-H3122 cells assessed as inhibition of cell proliferation measured after 72 hrs by MTT assay; assay type: functional, cell-based; conditions: NCI-H3122, 72 h
[2] = target: T1, Protein cereblon/ALK tyrosine kinase receptor/Echinoderm microtubule-associated protein-like 4 (Homo sapiens) (UniProt Q9UM73+Q9HC35+Q96SW2); experiment: Protac activity at CRBN/EML4-ALK in human NCI-H3122 cells assessed as induction of EML4-ALK fusion protein degradation at 0.1 uM incubated for 16 hrs by Western blot analysis relative to control; assay type: cell-based
KARPAS-299 [3] = experiment: Antiproliferative activity against ALK-positive human KARPAS-299 cells assessed as inhibition of cell proliferation measured after 72 hrs by MTT assay; assay type: functional, cell-based; conditions: KARPAS-299, 72 h
BaF3 [4] = experiment: Antiproliferative activity against crizotinib-resistant mouse BaF3 cells expressing EML-ALK L1196M mutant assessed as cell viability at 1 uM incubated for 72 hrs by Celltitre-Glo assay relative to control; assay type: functional; conditions: read-out: Activity
BaF3 [5] = experiment: Antiproliferative activity against crizotinib-resistant mouse BaF3 cells expressing EML-ALK L1152R mutant assessed as cell viability at 1 uM incubated for 72 hrs by Celltitre-Glo assay relative to control; assay type: functional; conditions: read-out: Activity
[6] = target: T1, Protein cereblon/ALK tyrosine kinase receptor/Echinoderm microtubule-associated protein-like 4 (Homo sapiens); experiment: Protac activity at CRBN/EML4-ALK in human NCI-H3122 cells assessed as induction of EML4-ALK fusion protein degradation at 1 uM incubated for 16 hrs by Western blot analysis relative to control; assay type: cell-based
BaF3 [7] = experiment: Antiproliferative activity against crizotinib-resistant mouse BaF3 cells expressing EML-ALK G1202R mutant assessed as cell viability at 1 uM incubated for 72 hrs by Celltitre-Glo assay relative to control; assay type: functional; conditions: read-out: Activity
[8] = target: T2, Protein cereblon/ALK tyrosine kinase receptor/Nucleophosmin (Homo sapiens) (UniProt Q9UM73+P06748+Q96SW2); experiment: Protac activity at CRBN/NPM-ALK in human KARPAS-299 cells assessed as induction of NPM-ALK fusion protein degradation at 0.1 uM incubated for 24 hrs by Western blot analysis relative to control; assay type: cell-based
[9] = target: T2, Protein cereblon/ALK tyrosine kinase receptor/Nucleophosmin (Homo sapiens); experiment: Protac activity at CRBN/NPM-ALK in human KARPAS-299 cells assessed as induction of NPM-ALK fusion protein degradation at 1 uM incubated for 24 hrs by Western blot analysis relative to control; assay type: cell-based
[10] = target: T3, ALK tyrosine kinase receptor (Homo sapiens, UniProt Q9UM73); experiment: Inhibition of ALK phosphorylation in human KARPAS-299 cells at 0.01 to 1 uM measured after 24 hrs by Western blot analysis; assay type: cell-based; conditions: dose 0.01-1 µM
Target sequence in this assay (Q9UM73 19-1620 limits assumed): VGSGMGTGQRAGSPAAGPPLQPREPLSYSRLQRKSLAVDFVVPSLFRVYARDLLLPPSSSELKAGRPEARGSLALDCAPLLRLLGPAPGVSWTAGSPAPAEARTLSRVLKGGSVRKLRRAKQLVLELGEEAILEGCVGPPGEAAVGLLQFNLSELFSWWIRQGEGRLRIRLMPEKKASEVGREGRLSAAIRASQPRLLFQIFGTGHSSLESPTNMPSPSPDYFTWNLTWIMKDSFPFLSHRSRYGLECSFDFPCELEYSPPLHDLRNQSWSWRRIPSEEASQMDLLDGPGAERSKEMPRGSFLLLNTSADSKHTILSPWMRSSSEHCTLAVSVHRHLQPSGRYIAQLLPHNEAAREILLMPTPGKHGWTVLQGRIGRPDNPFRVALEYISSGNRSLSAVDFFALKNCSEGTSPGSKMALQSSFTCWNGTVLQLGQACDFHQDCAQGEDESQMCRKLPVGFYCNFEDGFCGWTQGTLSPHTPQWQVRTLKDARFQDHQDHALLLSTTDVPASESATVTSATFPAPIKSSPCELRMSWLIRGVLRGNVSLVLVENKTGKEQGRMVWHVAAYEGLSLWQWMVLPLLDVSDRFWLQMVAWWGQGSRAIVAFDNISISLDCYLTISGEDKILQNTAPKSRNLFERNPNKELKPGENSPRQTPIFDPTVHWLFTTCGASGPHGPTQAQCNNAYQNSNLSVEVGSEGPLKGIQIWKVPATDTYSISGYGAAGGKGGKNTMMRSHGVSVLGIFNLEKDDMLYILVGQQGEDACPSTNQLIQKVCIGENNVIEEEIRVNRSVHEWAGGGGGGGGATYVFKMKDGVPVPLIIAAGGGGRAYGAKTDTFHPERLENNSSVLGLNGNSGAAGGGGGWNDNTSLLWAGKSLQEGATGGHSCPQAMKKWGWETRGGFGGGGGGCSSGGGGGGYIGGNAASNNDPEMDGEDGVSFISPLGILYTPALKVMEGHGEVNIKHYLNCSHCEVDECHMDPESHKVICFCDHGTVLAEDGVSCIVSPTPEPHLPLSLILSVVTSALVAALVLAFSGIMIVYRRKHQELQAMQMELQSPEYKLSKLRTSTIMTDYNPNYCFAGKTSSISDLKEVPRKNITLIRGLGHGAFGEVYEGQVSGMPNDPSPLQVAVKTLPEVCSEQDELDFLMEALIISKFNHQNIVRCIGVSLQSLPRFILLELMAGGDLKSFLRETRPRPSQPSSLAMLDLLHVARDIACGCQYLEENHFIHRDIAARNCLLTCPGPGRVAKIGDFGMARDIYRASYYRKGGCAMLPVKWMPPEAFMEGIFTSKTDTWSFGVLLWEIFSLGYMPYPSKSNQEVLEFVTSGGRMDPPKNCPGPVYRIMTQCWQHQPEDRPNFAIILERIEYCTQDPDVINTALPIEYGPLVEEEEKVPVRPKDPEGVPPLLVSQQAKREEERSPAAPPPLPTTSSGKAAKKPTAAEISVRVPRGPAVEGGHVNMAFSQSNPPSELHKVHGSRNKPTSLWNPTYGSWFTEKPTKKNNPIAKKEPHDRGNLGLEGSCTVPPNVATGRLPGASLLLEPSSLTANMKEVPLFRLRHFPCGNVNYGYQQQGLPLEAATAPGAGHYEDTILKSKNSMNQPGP

[11] = target: Signal transducer and activator of transcription 3 (Homo sapiens) (UniProt P40763); experiment: Inhibition of STAT3 phosphorylation in human KARPAS-299 cells as 0.01 to 1 uM measured after 24 hrs by Western blot analysis; assay type: cell-based; conditions: dose 0.01-1 µM
[12] = target: T3, ALK tyrosine kinase receptor
BaF3 [13] = experiment: Antiproliferative activity against mouse BaF3 cells assessed as cell viability at 1 uM incubated for 72 hrs by Celltitre-Glo assay relative to control; assay type: functional; conditions: read-out: Activity
KARPAS-299 [14] = experiment: Antiproliferative activity against human KARPAS-299 cells assessed as inhibition of cell growth measured after 72 hrs by MTT assay; assay type: functional, cell-based; conditions: KARPAS-299, 72 h
KARPAS-299 [15] = experiment: Antitumor activity against human KARPAS-299 cells xenografted in NCG mouse assessed as reduction in tumor weight at 20 mg/kg, po administered once every day for 3 weeks and measured every 3 days; assay type: functional, organism-based
[16] = Toxicity in NCG mouse xenografted with human KARPAS-299 cells assessed as body weight loss at 20 mg/kg, po administered once every day for 3 weeks; assay type: organism-based; conditions: in vivo, 504 h
[17] = Toxicity in NCG mouse xenografted with human KARPAS-299 cells assessed as kidney damage at 20 mg/kg, po administered once every day for 3 weeks by H and E staining based analysis; assay type: organism-based; conditions: in vivo, 504 h
KARPAS-299 [18] = experiment: Antitumor activity against human KARPAS-299 cells xenografted in NCG mouse assessed as tumor growth inhibition at 20 mg/kg, po administered once every day for 3 weeks and measured every 3 days relative to control; assay type: functional; conditions: KARPAS-299, 504 h, read-out: TGI
[19] = Toxicity in NCG mouse xenografted with human KARPAS-299 cells assessed as liver damage at 20 mg/kg, po administered once every day for 3 weeks by H and E staining based analysis; assay type: organism-based; conditions: in vivo, 504 h
[20] = Toxicity in NCG mouse xenografted with human KARPAS-299 cells assessed as spleen damage at 20 mg/kg, po administered once every day for 3 weeks by H and E staining based analysis; assay type: organism-based; conditions: in vivo, 504 h
[21] = Toxicity in NCG mouse xenografted with human KARPAS-299 cells assessed as heart damage at 20 mg/kg, po administered once every day for 3 weeks by H & E staining based analysis; assay type: organism-based; conditions: in vivo, 504 h
KARPAS-299 [22] = experiment: Antitumor activity against human KARPAS-299 cells xenografted in NCG mouse assessed as reduction in tumor volume at 20 mg/kg, po administered once every day for 3 weeks and measured every 3 days; assay type: functional, organism-based
[23] = target: Leukocyte tyrosine kinase receptor (Homo sapiens) (UniProt P29376); experiment: Inhibition of LTK (unknown origin) at 10 nM relative to control
[24] = Toxicity in NCG mouse xenografted with human KARPAS-299 cells assessed as lung damage at 20 mg/kg, po administered once every day for 3 weeks by H and E staining based analysis; assay type: organism-based; conditions: in vivo, 504 h

Signal transducer and activator of transcription 3 (Homo sapiens), sequence (P40763 whole entry): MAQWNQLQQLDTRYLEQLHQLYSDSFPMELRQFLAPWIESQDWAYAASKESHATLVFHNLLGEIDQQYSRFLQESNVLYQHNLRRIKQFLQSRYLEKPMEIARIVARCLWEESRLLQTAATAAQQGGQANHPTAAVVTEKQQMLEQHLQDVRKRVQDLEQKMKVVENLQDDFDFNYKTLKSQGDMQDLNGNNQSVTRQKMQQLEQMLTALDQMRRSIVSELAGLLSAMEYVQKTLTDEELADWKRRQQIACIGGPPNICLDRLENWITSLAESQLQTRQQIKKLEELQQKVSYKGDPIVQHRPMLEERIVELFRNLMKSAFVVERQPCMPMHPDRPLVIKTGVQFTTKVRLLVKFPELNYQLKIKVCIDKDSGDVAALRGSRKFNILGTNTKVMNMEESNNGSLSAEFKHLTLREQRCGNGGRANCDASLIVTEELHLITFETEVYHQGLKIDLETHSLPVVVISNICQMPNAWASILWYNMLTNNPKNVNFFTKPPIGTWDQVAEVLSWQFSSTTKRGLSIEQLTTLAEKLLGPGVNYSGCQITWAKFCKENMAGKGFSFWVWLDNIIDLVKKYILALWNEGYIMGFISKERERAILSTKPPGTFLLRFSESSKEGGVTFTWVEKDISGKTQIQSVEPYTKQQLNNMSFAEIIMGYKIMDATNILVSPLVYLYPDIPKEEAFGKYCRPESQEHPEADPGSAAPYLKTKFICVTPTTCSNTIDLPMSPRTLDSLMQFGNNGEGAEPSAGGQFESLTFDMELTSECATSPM
T1 sequence (Q96SW2 whole entry partner, the tested form may be a part): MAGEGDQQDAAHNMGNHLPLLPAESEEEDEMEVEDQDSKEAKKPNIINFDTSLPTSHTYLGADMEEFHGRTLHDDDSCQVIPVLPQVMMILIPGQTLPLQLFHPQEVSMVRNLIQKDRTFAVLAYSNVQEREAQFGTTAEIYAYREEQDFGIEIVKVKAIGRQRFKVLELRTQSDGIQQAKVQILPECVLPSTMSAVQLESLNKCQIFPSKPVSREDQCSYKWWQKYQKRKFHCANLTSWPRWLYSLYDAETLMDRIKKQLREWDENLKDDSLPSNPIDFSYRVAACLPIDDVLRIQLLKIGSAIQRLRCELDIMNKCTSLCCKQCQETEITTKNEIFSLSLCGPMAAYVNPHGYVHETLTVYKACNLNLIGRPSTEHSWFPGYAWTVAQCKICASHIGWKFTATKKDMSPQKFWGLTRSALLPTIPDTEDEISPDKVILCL
T1 sequence (Q9HC35 whole entry partner, the tested form may be a part): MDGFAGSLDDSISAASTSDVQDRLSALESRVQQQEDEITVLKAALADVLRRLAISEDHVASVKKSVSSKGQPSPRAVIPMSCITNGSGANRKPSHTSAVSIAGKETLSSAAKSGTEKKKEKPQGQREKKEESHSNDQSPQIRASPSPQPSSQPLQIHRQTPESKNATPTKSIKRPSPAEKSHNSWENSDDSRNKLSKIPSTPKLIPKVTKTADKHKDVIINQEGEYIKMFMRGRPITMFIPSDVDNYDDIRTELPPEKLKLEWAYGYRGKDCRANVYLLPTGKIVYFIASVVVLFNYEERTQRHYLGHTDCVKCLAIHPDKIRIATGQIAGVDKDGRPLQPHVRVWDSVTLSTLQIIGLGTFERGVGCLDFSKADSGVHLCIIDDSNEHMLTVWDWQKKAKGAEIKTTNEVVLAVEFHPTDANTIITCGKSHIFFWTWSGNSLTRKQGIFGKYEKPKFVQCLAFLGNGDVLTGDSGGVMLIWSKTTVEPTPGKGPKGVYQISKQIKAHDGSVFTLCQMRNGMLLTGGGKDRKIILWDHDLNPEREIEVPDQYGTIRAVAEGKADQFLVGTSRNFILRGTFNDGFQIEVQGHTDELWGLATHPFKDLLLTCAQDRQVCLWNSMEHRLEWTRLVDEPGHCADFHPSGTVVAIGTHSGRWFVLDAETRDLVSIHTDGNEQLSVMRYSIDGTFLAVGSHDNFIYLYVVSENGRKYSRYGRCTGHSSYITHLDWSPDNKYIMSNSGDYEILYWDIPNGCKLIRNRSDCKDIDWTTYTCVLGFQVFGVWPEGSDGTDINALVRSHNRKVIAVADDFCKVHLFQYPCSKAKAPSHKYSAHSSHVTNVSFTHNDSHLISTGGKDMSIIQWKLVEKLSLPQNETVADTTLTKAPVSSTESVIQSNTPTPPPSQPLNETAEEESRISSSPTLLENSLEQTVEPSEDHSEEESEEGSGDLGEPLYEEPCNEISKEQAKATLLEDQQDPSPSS
T1 sequence (Q9UM73 19-1620 limits assumed): as the sequence (Q9UM73 19-1620 limits assumed) above
T2 sequence (P06748 whole entry partner, the tested form may be a part): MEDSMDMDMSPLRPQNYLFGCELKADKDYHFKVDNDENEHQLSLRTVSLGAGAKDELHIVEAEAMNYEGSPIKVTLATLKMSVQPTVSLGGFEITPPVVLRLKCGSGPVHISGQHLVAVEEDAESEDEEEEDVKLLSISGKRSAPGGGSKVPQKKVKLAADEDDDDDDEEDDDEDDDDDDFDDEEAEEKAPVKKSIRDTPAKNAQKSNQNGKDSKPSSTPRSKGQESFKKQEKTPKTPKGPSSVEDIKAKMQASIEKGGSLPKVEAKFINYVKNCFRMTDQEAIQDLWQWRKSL
T2 sequence (Q96SW2 whole entry partner, the tested form may be a part): as the sequence (Q96SW2 whole entry partner, the tested form may be a part) above
T2 sequence (Q9UM73 19-1620 limits assumed): as the sequence (Q9UM73 19-1620 limits assumed) above
Leukocyte tyrosine kinase receptor (Homo sapiens), sequence (P29376 whole entry): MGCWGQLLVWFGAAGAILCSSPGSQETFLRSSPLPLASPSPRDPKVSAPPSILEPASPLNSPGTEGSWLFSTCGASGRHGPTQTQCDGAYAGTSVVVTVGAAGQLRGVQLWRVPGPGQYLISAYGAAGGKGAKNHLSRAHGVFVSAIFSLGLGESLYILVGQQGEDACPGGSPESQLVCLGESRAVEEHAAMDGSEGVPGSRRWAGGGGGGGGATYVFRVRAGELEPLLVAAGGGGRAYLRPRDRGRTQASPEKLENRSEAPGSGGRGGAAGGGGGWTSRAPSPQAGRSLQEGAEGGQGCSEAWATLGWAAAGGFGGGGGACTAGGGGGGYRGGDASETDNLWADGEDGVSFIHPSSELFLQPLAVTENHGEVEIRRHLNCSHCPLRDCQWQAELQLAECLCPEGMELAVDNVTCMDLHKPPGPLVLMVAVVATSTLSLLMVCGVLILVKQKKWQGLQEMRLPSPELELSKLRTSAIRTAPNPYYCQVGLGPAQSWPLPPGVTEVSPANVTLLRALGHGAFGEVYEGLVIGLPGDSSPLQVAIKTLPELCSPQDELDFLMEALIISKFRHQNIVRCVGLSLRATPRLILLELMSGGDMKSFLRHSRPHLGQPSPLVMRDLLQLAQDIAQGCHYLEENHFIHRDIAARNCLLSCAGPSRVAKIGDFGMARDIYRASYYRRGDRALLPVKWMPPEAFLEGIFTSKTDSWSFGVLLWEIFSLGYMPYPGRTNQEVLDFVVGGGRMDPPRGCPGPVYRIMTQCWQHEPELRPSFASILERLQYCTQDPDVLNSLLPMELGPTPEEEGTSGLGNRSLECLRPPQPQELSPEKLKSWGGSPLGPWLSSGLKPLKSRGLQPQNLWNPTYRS

IC50 (NCI-H3122) [nM]	Activity [2] [%]	IC50 (KARPAS-299 [3]) [nM]	Activity [6] [%]	Activity [8] [%]	Activity [9] [%]	inhibition [10]	inhibition [11]	Structure (SMILES)	viability at 1 µM (BaF3 [1]) [%]	viability at 1 µM (BaF3 [4]) [%]	viability at 1 µM (BaF3 [5]) [%]	viability at 1 µM (BaF3 [7]) [%]	further results
96	49.9	119	87	–	–	–	–	CCc1cc2c(cc1N1CCC(N3CCN(CC(=O)NCCCCNc4cccc5c4C(=O)N(C4CCC(=O)NC4=O)C5=O)CC3)CC1)C(C)(C)c1[nH]c3cc(C#N)ccc3c1C2=O (stereo not drawn)	0.1	3.6	0.1	70.9	–
269	–	245	–	55.1	71.6	Active	Active	CCc1cc2c(cc1N1CCN(C(=O)CCCCCNc3cccc4c3C(=O)N(C3CCC(=O)NC3=O)C4=O)CC1)C(C)(C)c1[nH]c3cc(C#N)ccc3c1C2=O (stereo not drawn)	–	–	–	–	–
107	77.3	107	96.9	72.8	94.3	Active	Active	CCc1cc2c(cc1N1CCC(N3CCN(C(=O)CNc4cccc5c4C(=O)N(C4CCC(=O)NC4=O)C5=O)CC3)CC1)C(C)(C)c1[nH]c3cc(C#N)ccc3c1C2=O (stereo not drawn)	–	–	–	–	–
92	–	66	–	77.4	85.9	Active	Active	CCc1cc2c(cc1N1CCN(C(=O)CCCNc3cccc4c3C(=O)N(C3CCC(=O)NC3=O)C4=O)CC1)C(C)(C)c1[nH]c3cc(C#N)ccc3c1C2=O (stereo not drawn)	–	–	–	–	–
612	–	640	50.6	–	–	–	–	CCc1cc2c(cc1N1CCC(N3CCN(c4cccc5c4C(=O)N(C4CCC(=O)NC4=O)C5=O)CC3)CC1)C(C)(C)c1[nH]c3cc(C#N)ccc3c1C2=O (stereo not drawn)	–	–	–	–	–
40	–	50	–	–	–	–	–	CCc1cc2c(cc1N1CCC(N3CCNCC3)CC1)C(C)(C)c1[nH]c3cc(C#N)ccc3c1C2=O	0.2	0.1	0.1	0.3	IC50 [12]: 290 nM
121	74.4	106	81.8	68.3	57.8	Active	Active	CCc1cc2c(cc1N1CCN(CC(=O)NCCNc3cccc4c3C(=O)N(C3CCC(=O)NC3=O)C4=O)CC1)C(C)(C)c1[nH]c3cc(C#N)ccc3c1C2=O (stereo not drawn)	–	–	–	–	–
118	24.5	119	77.3	–	–	–	–	CCc1cc2c(cc1N1CCC(N3CCN(CC(=O)NCCCCCCNc4cccc5c4C(=O)N(C4CCC(=O)NC4=O)C5=O)CC3)CC1)C(C)(C)c1[nH]c3cc(C#N)ccc3c1C2=O (stereo not drawn)	–	–	–	–	–
38	–	46	–	–	–	–	–	CCc1cc2c(cc1N1CCNCC1)C(C)(C)c1[nH]c3cc(C#N)ccc3c1C2=O	0.2	0.1	0	0.5	viability at 1 µM (BaF3 [13]): 74%; IC50 [12]: 320 nM
77	38.3	97	75.7	56.5	76	Active	Active	CCc1cc2c(cc1N1CCN(CC(=O)NCCCCNc3cccc4c3C(=O)N(C3CCC(=O)NC3=O)C4=O)CC1)C(C)(C)c1[nH]c3cc(C#N)ccc3c1C2=O (stereo not drawn)	0.1	4.8	0	76.1	–
116	51.3	114	75.8	66.5	69.8	Active	Active	CCc1cc2c(cc1N1CCN(CC(=O)NCCCCCCNc3cccc4c3C(=O)N(C3CCC(=O)NC3=O)C4=O)CC1)C(C)(C)c1[nH]c3cc(C#N)ccc3c1C2=O (stereo not drawn)	–	–	–	–	–
–	–	–	–	–	–	–	–	Nc1cccc2c1C(=O)N(C1CCC(=O)NC1=O)C2=O (stereo not drawn) [POMALIDOMIDE]	–	–	–	–	IC50 (KARPAS-299 [14]): > 10000 nM
45	–	47	–	–	–	–	–	CCc1cc2c(cc1N1CCC(N3CCOCC3)CC1)C(C)(C)c1[nH]c3cc(C#N)ccc3c1C2=O [ALECTINIB]	0.1	1.9	0	73.3	Activity (KARPAS-299 [15]): Active; Activity [16]: Non-Toxic; Activity [17]: Non-Toxic; inhibition in vivo at 20 mg/kg (KARPAS-299 [18]): 63.8%; Activity [19]: Non-Toxic; Activity [20]: Non-Toxic; Activity [21]: Non-Toxic; Activity (KARPAS-299 [22]): Active; viability at 1 µM (BaF3 [13]): 100%; inhibition [23]: > 50%; Activity [24]: Non-Toxic
272	–	275	–	–	–	–	–	CCc1cc2c(cc1N1CCN(C(=O)CNc3cccc4c3C(=O)N(C3CCC(=O)N(C)C3=O)C4=O)CC1)C(C)(C)c1[nH]c3cc(C#N)ccc3c1C2=O (stereo not drawn)	–	–	–	–	IC50 [12]: 30600 nM
121	47.8	111	91	–	–	–	–	CCc1cc2c(cc1N1CCC(N3CCN(CC(=O)NCCNc4cccc5c4C(=O)N(C4CCC(=O)NC4=O)C5=O)CC3)CC1)C(C)(C)c1[nH]c3cc(C#N)ccc3c1C2=O (stereo not drawn)	–	–	–	–	–
186	24.3	101	50.2	–	29.9	–	–	CCc1cc2c(cc1N1CCN(c3cccc4c3C(=O)N(C3CCC(=O)NC3=O)C4=O)CC1)C(C)(C)c1[nH]c3cc(C#N)ccc3c1C2=O (stereo not drawn)	–	–	–	–	–
